Experimental data from patent US9878978B2, “Processes for the diazotization of 2,5-dichloroanilines” (priority 2013, dated 2018).

Assays:
[1] = acetic acid/sulfuric acid reaction mixture stored at room temperature for two weeks
[2] = Solubility study of 2,5-dichloroaniline in different solvents; assay type: physicochemical
Protocol: Three different commercially available sources of 2,5-dichloroaniline (Sigma, Acros, and AlfaAesar) were evaluated for solubility in several different solvents under the specific conditions reported in Table 5-A. The 2,5-dichloroaniline obtained from Sigma was evaluated with and without milling.
In contrast, it was insoluble in concentrated hydrochloric acid, 75% sulfuric acid (weight/weight sulfuric acid/water), and formic acid at all temperatures tested. Although 2,5-dichloroaniline was soluble in concentrated sulfuric acid at 80° C., solubility at the lower temperatures tested still was limited. Milling the 2,5-dichloroaniline did appear to improve solubility in concentrated sulfuric acid.
When sulfuric acid was added to the milled or unmilled 2,5-dichloroaniline, the 2,5-dichloroaniline clumped up and formed a “crust” on itself. It is hypothesized that this crust is a 2,5-dichloroaniline sulfate salt that forms and creates a salt capsule enclosing the 2,5-dichloroaniline thereby further reducing 2,5-dichloroaniline solubility. With vigorous stirring by stir bar or paddle-equipped stir rod, the mixture containing the “crusted” 2,5-dichloroaniline typically can be converted to a slurry of the 2,5-dichloroaniline sulfate salt.

[3] = 2,5-Dichlorophenol stability at 120° C. with or without sodium nitrite and sulfamic acid; assay type: physicochemical; conditions: 120° C. in the various solvents, without sodium nitrite
Protocol: In this study, 2,5-dichlorophenol was stirred at 120° C. in the presence or absence of sodium nitrite and/or sulfamic acid. The 2,5-dichlorophenol itself was stable and either dissolved or melted in the various solvents at 120° C. Upon addition of sodium nitrite to the solution and heating at 120° C. for 30 minutes, all of the solutions had some byproduct formation. The experiments were repeated with sulfamic acid added at 1.1 times the sodium nitrite equivalents with heating to 120° C. for 30 minutes as before. Byproduct formation was reduced, and only the solutions containing sulfuric acid had byproducts.

Question: With `N#[N+]c1cc(Cl)ccc1Cl` [2,5-Dichlorobenzene diazonium, 2,5-dichlorobenzenediazonium] as the compound, how does the Degradation on storage [1] read?
Answer: The Degradation on storage was “no degradation”.

Question: Which results are given for `Nc1cc(Cl)ccc1Cl` [2,5-dichloroaniline]?
Answer: Solubility ([2]; 75% sulfuric acid (weight/weight sulfuric acid/water), all temperatures tested): insoluble; Solubility ([2]; Acros, not milled, Conc. H2SO4, molarity 1.12, 10° C.): Partial; Solubility ([2]; Acros, not milled, Conc. H2SO4, molarity 1.12, 25° C.): Soluble; Solubility ([2]; Acros, not milled, Conc. H2SO4, molarity 1.12, 80° C.): Soluble; Solubility ([2]; Acros, not milled, Conc. H2SO4, molarity 2.24, 10° C.): Partial; Solubility ([2]; Acros, not milled, Conc. H2SO4, molarity 2.24, 25° C.): Partial; Solubility ([2]; Acros, not milled, Conc. H2SO4, molarity 2.24, 80° C.): Soluble; Solubility ([2]; Acros, not milled, Glacial Acetic Acid, molarity 1.12, 10° C.): Soluble; Solubility ([2]; Acros, not milled, Glacial Acetic Acid, molarity 1.12, 25° C.): Soluble; Solubility ([2]; Acros, not milled, Glacial Acetic Acid, molarity 1.12, 80° C.): Soluble; Solubility ([2]; Acros, not milled, Glacial Acetic Acid, molarity 2.24, 10° C.): Soluble; Solubility ([2]; Acros, not milled, Glacial Acetic Acid, molarity 2.24, 25° C.): Soluble; Solubility ([2]; Acros, not milled, Glacial Acetic Acid, molarity 2.24, 80° C.): Soluble; Solubility ([2]; AlfaAesar, not milled, Conc. H2SO4, molarity 1.12, 10° C.): Partial; Solubility ([2]; AlfaAesar, not milled, Conc. H2SO4, molarity 1.12, 25° C.): Partial; Solubility ([2]; AlfaAesar, not milled, Conc. H2SO4, molarity 1.12, 80° C.): Soluble; Solubility ([2]; AlfaAesar, not milled, Glacial Acetic Acid, molarity 2.24, 10° C.): Soluble; Solubility ([2]; AlfaAesar, not milled, Glacial Acetic Acid, molarity 2.24, 25° C.): Soluble; Solubility ([2]; AlfaAesar, not milled, Glacial Acetic Acid, molarity 2.24, 80° C.): Soluble; Solubility ([2]; Sigma, milled, Conc. H2SO4, molarity 0.58, 10° C.): Soluble; Solubility ([2]; Sigma, milled, Conc. H2SO4, molarity 0.58, 25° C.): Soluble; Solubility ([2]; Sigma, milled, Conc. H2SO4, molarity 1.16, 10° C.): Soluble; Solubility ([2]; Sigma, milled, Conc. H2SO4, molarity 1.16, 25° C.): Soluble; Solubility ([2]; Sigma, milled, Conc. H2SO4, molarity 2.13, 10° C.): Soluble; Solubility ([2]; Sigma, milled, Conc. H2SO4, molarity 2.13, 25° C.): Soluble; Solubility ([2]; Sigma, milled, Glacial Acetic Acid, molarity 1.16, 10° C.): Soluble; Solubility ([2]; Sigma, milled, Glacial Acetic Acid, molarity 1.16, 25° C.): Soluble; Solubility ([2]; Sigma, milled, Glacial Acetic Acid, molarity 2.24, 10° C.): Soluble; Solubility ([2]; Sigma, milled, Glacial Acetic Acid, molarity 2.24, 25° C.): Soluble; Solubility ([2]; Sigma, not milled, 75% H2SO4, molarity 2.24, 10° C.): Insoluble; Solubility ([2]; Sigma, not milled, 75% H2SO4, molarity 2.24, 25° C.): Insoluble; Solubility ([2]; Sigma, not milled, 75% H2SO4, molarity 2.24, 80° C.): Insoluble; Solubility ([2]; Sigma, not milled, Conc. H2SO4, molarity 2.24, 10° C.): Insoluble; Solubility ([2]; Sigma, not milled, Conc. H2SO4, molarity 2.24, 25° C.): Insoluble; Solubility ([2]; Sigma, not milled, Conc. H2SO4, molarity 2.24, 80° C.): Soluble; Solubility ([2]; Sigma, not milled, Conc. HCl, molarity 2.24, 10° C.): Insoluble; Solubility ([2]; Sigma, not milled, Conc. HCl, molarity 2.24, 25° C.): Insoluble; Solubility ([2]; Sigma, not milled, Conc. HCl, molarity 2.24, 80° C.): Insoluble; Solubility ([2]; Sigma, not milled, Formic Acid (88%), molarity 2.24, 10° C.): Insoluble; Solubility ([2]; Sigma, not milled, Formic Acid (88%), molarity 2.24, 25° C.): Insoluble; Solubility ([2]; Sigma, not milled, Formic Acid (88%), molarity 2.24, 80° C.): Insoluble; Solubility ([2]; Sigma, not milled, Glacial Acetic Acid, molarity 2.24, 25° C.): Soluble; Solubility ([2]; Sigma, not milled, Glacial Acetic Acid, molarity 2.24, 80° C.): Soluble; Solubility ([2]; Sigma, not milled, Trifluoracetic Acid, molarity 2.24, 10° C.): Soluble; Solubility ([2]; Sigma, not milled, Trifluoracetic Acid, molarity 2.24, 25° C.): Soluble; Solubility ([2]; Sigma, not milled, Trifluoracetic Acid, molarity 2.24, 80° C.): Soluble; Solubility ([2]; acetic acid, all temperatures): readily soluble; Solubility ([2]; concentrated hydrochloric acid, all temperatures tested): insoluble; Solubility ([2]; concentrated sulfuric acid, 80° C.): soluble; Solubility ([2]; concentrated sulfuric acid, lower temperatures tested): limited; Solubility ([2]; formic acid, all temperatures tested): insoluble; Solubility ([2]; trifluoroacetic acid, all temperatures): readily soluble

Question: Which Stability [3] does the source give for `Oc1cc(Cl)ccc1Cl` [2,5-dichlorophenol] here?
Answer: The Stability was “stable”.
